Results on five compounds are retold here after patent US9708306B2, “Benzimidazole derivatives and preparation process and pharmaceutical uses thereof” (WUHAN LL SCIENCE AND TECHNOLOGY DEVELOPMENT CO., LTD, priority 2015, dated 2017).

Several values for one entry are separate records, joined by “and”; a condition that tells them apart may be missing. Equal entries are not always repeated. Where two headings read alike, the source gives them in different places.

The subject of assay [1] is renovascular hypertensive rats. Nature of the assay: Effect on reducing blood pressure of renovascular hypertensive rats by single oral administration. It is filed as in vivo, Wistar rats. Conditions: for change in vivo at 0.5 mg/kg / inhibition in vivo at 0.5 mg/kg / change in vivo at 1 mg/kg / inhibition in vivo at 1 mg/kg / change in vivo at 2 mg/kg / inhibition in vivo at 2 mg/kg: Rattus norvegicus, single oral administration; for change in vivo at 0.5 mg/kg / change in vivo at 1 mg/kg / change in vivo at 2 mg/kg: RHR, read-out: Variations on heart rate; for inhibition in vivo at 0.5 mg/kg / inhibition in vivo at 1 mg/kg / inhibition in vivo at 2 mg/kg: two-kidney one-clip RHR, measured 1-10 h, read-out: Maximum blood pressure reduction.

The test system of assay [2] is spontaneously hypertensive rats (SHR). As to the kind of experiment: Effect on reducing blood pressure of spontaneously hypertensive rats (SHR) by multiple oral administrations. It is filed as in vivo. Conditions: for inhibition in vivo at 0.5 mg/kg / inhibition in vivo at 1 mg/kg / inhibition in vivo at 2 mg/kg: Rattus norvegicus; for inhibition in vivo at 0.5 mg/kg / inhibition in vivo at 1 mg/kg / inhibition in vivo at 2 mg/kg / blood pressure reduction effect compared with Azilsartan medoxomil: SHR.

Another assay has as its system normal rats. Nature of the assay: Effect on blood pressure of normal rats by single oral administration. It is filed as in vivo, Wistar rats. Conditions: for inhibition in vivo at 0.5 mg/kg / inhibition in vivo at 1 mg/kg / inhibition in vivo at 2 mg/kg / change in vivo at 0.5 mg/kg / change in vivo at 1 mg/kg / change in vivo at 2 mg/kg: Rattus norvegicus, po, single, normal rats; for inhibition in vivo at 0.5 mg/kg / inhibition in vivo at 1 mg/kg / inhibition in vivo at 2 mg/kg: 8 h, read-out: blood pressure reduction at 8 h after the administration; for inhibition in vivo at 0.5 mg/kg / change in vivo at 0.5 mg/kg: 0.5 mg/kg p.o.; for inhibition in vivo at 1 mg/kg / change in vivo at 1 mg/kg: 1.0 mg/kg p.o.; for inhibition in vivo at 2 mg/kg / change in vivo at 2 mg/kg: 2.0 mg/kg p.o.; for change in vivo at 0.5 mg/kg / change in vivo at 1 mg/kg / change in vivo at 2 mg/kg: read-out: variations on heart rate.

[3] abbreviates: renal artery-ligated rat, result in words.
Where [4] appears, read: 0.5 mg/kg oral once per day, 1 hour after the administration, read-out: Maximum blood pressure reduction, 1st-day administration.
The mark [5] stands for this setting: 0.5 mg/kg oral once per day, 1 hour after the administration, read-out: Maximum blood pressure reduction, 7th-day administration.
Where [6] appears, read: 0.5 mg/kg oral once per day, 1 hour after the administration, read-out: Maximum blood pressure reduction, 14th-day administration.
[7] abbreviates: 1.0 mg/kg oral once per day, 1 hour after the administration, read-out: Maximum blood pressure reduction, 1st-day administration.
The mark [8] stands for this setting: 1.0 mg/kg oral once per day, 1 hour after the administration, read-out: Maximum blood pressure reduction, 7th-day administration.
Setting [9] is: 1.0 mg/kg oral once per day, 1 hour after the administration, read-out: Maximum blood pressure reduction, 14th-day administration.
The mark [10] stands for this setting: 2.0 mg/kg oral once per day, 1 hour after the administration, read-out: Maximum blood pressure reduction, 1st-day administration.
Setting [11] is: 2.0 mg/kg oral once per day, 1 hour after the administration, read-out: Maximum blood pressure reduction, 7th-day administration.
Setting [12] is: 2.0 mg/kg oral once per day, 1 hour after the administration, read-out: Maximum blood pressure reduction, 14th-day administration.
[13] abbreviates: renal artery-ligated rat, 24 hours after the administration, dose not stated.
Where [14] appears, read: 0.5 mg/kg oral, read-out: Heart Rate (effect on reducing heart rate).
Where [15] appears, read: 1.0 mg/kg oral, read-out: Heart Rate (effect on reducing heart rate).
The mark [16] stands for this setting: 2.0 mg/kg oral, read-out: Heart Rate (effect on reducing heart rate).
Where [17] appears, read: during the whole administration, result in words.

For the compound `CCOc1nc2cccc(C(=O)OC(C)OC(=O)OCc3no[n+]([O-])c3C)c2n1Cc1ccc(-c2ccccc2-c2noc(=O)[nH]2)cc1` (stereo not shown) [QR01021], the change in vivo at 0.5 mg/kg in assay [1] was -6 ± 5%; in the assay on normal rats it was -4 ± 3%. Also, the inhibition in vivo at 0.5 mg/kg worked out at 15 ± 2.1% in assay [1]; 23 ± 6.4% in assay [2] (setting [4]); 24 ± 4.1% in assay [2] (setting [5]); 25 ± 5% in assay [2] (setting [6]); 2.7 ± 3.2% with normal rats. In addition, the change in vivo at 1 mg/kg was -3 ± 6% in assay [1] and -2 ± 5% with normal rats. For the same compound, the inhibition in vivo at 1 mg/kg in assay [1] was 28 ± 4.5%; in assay [2] (setting [7]), 42 ± 7.7%; in assay [2] (setting [8]), 40 ± 3.8%; in assay [2] (setting [9]), 44 ± 5.1%; in the assay with normal rats, 3.9 ± 3.8%. Further, the change in vivo at 2 mg/kg in assay [1] is -12 ± 5%; with normal rats, -1 ± 3%. Also, the inhibition in vivo at 2 mg/kg in assay [1] came out at 32 ± 5.2%; in assay [2] (setting [10]), 44 ± 6%; in assay [2] (setting [11]), 44 ± 8.7%; in assay [2] (setting [12]) it was 46 ± 5.9%; in the assay on normal rats it was 2.8 ± 3.1%. The entries for the “blood pressure reduction effect compared with Azilsartan medoxomil” value in assay [1] (setting [3]) and in assay [2] (result in words) were “close to that of Azilsartan medoxomil” and “obviously superior to that of the Azilsartan medoxomil positive drug”, respectively.
In the case of `CCOc1nc2cccc(C(=O)OCOC(=O)OCc3nc(C)c(C)nc3C)c2n1Cc1ccc(-c2ccccc2-c2noc(=O)[nH]2)cc1` [QR01017], in assay [1] (rat, in vivo), the “Maximum blood pressure reduction” value was 25 ± 6.2% and 38 ± 3.5% and 46 ± 2.6%; the “blood pressure reduction at 24 hours after the administration” value (“blood pressure reduction at 24 hours” for short) is recorded as 20%; the “blood pressure reduction effect compared with Azilsartan medoxomil” value is given as “obviously superior to that of the Azilsartan medoxomil positive drug”; the “lasting time of the blood pressure reduction effect compared with Azilsartan medoxomil” value was “close to that of Azilsartan medoxomil”. In assay [2] (rat, in vivo), the “Heart Rate (effect on reducing heart rate)” value was 18 ± 5% and 24 ± 4% and 29 ± 6%; the “Maximum blood pressure reduction, 1st-day administration” value is 22 ± 5.0% and 34 ± 4.4% and 36 ± 4.5%; the “Maximum blood pressure reduction, 7th-day administration” value is 22 ± 3.3% and 35 ± 3.9% and 38 ± 2.1%; the “Maximum blood pressure reduction, 14th-day administration” value is 23 ± 3.9% and 36 ± 3.2% and 38 ± 3.6%. Further, in assay [2] (rat, in vivo), the “reduction effects on the heart rate of SHR rats” value (“reduction effects” for short) is reported as “significant reduction effects on the heart rate”. In the assay on normal rats (rat, in vivo), the “Variations on heart rate” value is −5 ± 2% and −2 ± 4% and −4 ± 3%; the “blood pressure reduction at 8 h after the administration” value is 2.9 ± 4.5% and 3.3 ± 4.1% and 5.1 ± 3.2%.
In the case of `CCOc1nc2cccc(C(=O)OCc3no[n+]([O-])c3C)c2n1Cc1ccc(-c2ccccc2-c2noc(=O)[nH]2)cc1` [QR01023], the results for the change in vivo at 0.5 mg/kg (in assay [1]; in the assay with normal rats) were -8 ± 5% and -3 ± 2%, respectively. Also, the inhibition in vivo at 0.5 mg/kg turned out to be 18 ± 2.3% in assay [1]; 25 ± 8.2% in assay [2] (setting [4]); 24 ± 7.1% in assay [2] (setting [5]); 25 ± 6.8% in assay [2] (setting [6]); 20 ± 3% in assay [2] (setting [14]); 5.3 ± 1.4% in the assay on normal rats. For the same compound, the change in vivo at 1 mg/kg in assay [1] was -16 ± 7%; in the assay on normal rats it was 6%. Moreover, the inhibition in vivo at 1 mg/kg worked out at 32 ± 8.1% in assay [1]; 39 ± 6% in assay [2] (setting [7]); 38 ± 7% in assay [2] (setting [8]); 42 ± 5.3% in assay [2] (setting [9]); 14 ± 4% in assay [2] (setting [15]); 3.6 ± 6.1% in the assay with normal rats. Further, the values for the change in vivo at 2 mg/kg (in assay [1]; in the assay with normal rats) were -23 ± 6% and -3 ± 5%, respectively. Besides, the inhibition in vivo at 2 mg/kg in assay [1] came out at 42 ± 4.6%; in assay [2] (setting [10]) it was 45 ± 7.3%; in assay [2] (setting [11]), 48 ± 9.5%; in assay [2] (setting [12]), 40 ± 8.2%; in assay [2] (setting [16]) it was 23 ± 5%; in the assay with normal rats it was 4.3 ± 2.1%. In addition, the “blood pressure reduction at 24 hours” value in assay [1] (setting [13]) is listed as 18%. For the same compound, the “blood pressure reduction effect compared with Azilsartan medoxomil” value in assay [1] (setting [3]) and in assay [2] (result in words) was “obviously superior to that of the Azilsartan medoxomil positive drug” in each case. Moreover, the “lasting time of the blood pressure reduction effect compared with Azilsartan medoxomil” value in assay [1] (setting [3]) was “close to that of Azilsartan medoxomil”. Besides, the “reduction effects” value in assay [2] (setting [17]) is reported as “significant reduction effects on the heart rate”.
As to `CCOc1nc2cccc(C(=O)OCc3oc(=O)oc3C)c2n1Cc1ccc(-c2ccccc2-c2noc(=O)[nH]2)cc1` [Azilsartan medoxomil, reference compound], the change in vivo at 1 mg/kg in assay [1] is -7 ± 3%; in the assay on normal rats, -5 ± 2%. Moreover, the inhibition in vivo at 1 mg/kg worked out at 30 ± 3.8% in assay [1]; 32 ± 3.5% in assay [2] (setting [7]); 34 ± 2.8% in assay [2] (setting [8]); 36 ± 3.6% in assay [2] (setting [9]); 8 ± 3% in assay [2] (setting [15]); 6.4 ± 2.1% in the assay with normal rats. In addition, in assay [1] (setting [13]), the “blood pressure reduction at 24 hours” value is reported as 20%.
Consider `CCOc1nc2cccc(C(=O)OCOC(=O)OCc3no[n+]([O-])c3C)c2n1Cc1ccc(-c2ccccc2-c2noc(=O)[nH]2)cc1` [QR01020], for which the figures for the change in vivo at 0.5 mg/kg (in assay [1]; in the assay with normal rats) were -15 ± 3% and -1 ± 4%, respectively. The inhibition in vivo at 0.5 mg/kg in assay [1] was found to be 25 ± 4.3%; in assay [2] (setting [4]) it was 19 ± 6.8%; in assay [2] (setting [5]), 18 ± 6.9%; in assay [2] (setting [6]) it was 21 ± 4.6%; in assay [2] (setting [14]), 16 ± 4%; in the assay on normal rats, 2.8 ± 5.3%. Further, the change in vivo at 1 mg/kg is -28 ± 6% in assay [1] and -7 ± 3% in the assay on normal rats. In addition, the inhibition in vivo at 1 mg/kg was determined as 34 ± 6.8% in assay [1]; 30 ± 5.5% in assay [2] (setting [7]); 32 ± 8.3% in assay [2] (setting [8]); 35 ± 6.2% in assay [2] (setting [9]); 25 ± 3% in assay [2] (setting [15]); 3.9 ± 4.3% in the assay on normal rats. The change in vivo at 2 mg/kg in assay [1] is -25 ± 8%; in the assay with normal rats it was 3%. In addition, the inhibition in vivo at 2 mg/kg in assay [1] turned out to be 48 ± 2.6%; in assay [2] (setting [10]), 36 ± 5.3%; in assay [2] (setting [11]), 42 ± 7.5%; in assay [2] (setting [12]) it was 43 ± 7%; in assay [2] (setting [16]), 18 ± 5%; in the assay with normal rats, 5.6 ± 3.2%. The “blood pressure reduction at 24 hours” value in assay [1] (setting [13]) is 15%. In addition, the “blood pressure reduction effect compared with Azilsartan medoxomil” value in assay [1] (setting [3]) was “obviously superior to that of the Azilsartan medoxomil positive drug”. In addition, in assay [1] (setting [3]), the “lasting time of the blood pressure reduction effect compared with Azilsartan medoxomil” value was “close to that of Azilsartan medoxomil”. Besides, the “reduction effects” value in assay [2] (setting [17]) was “significant reduction effects on the heart rate”.
